Source: paper PMC11335211, “In vivo photocontrol of orexin receptors with a nanomolar light-regulated analogue of orexin-B” (Cellular and Molecular Life Sciences: CMLS, 2024)
Each block holds one compound with its values, some of them ahead of it. *1 amine or outer side, *2 acyl side, *3 side chain or, on linkers, in order; H or OH if unused. Where a SMILES comes first, the peptide text is derived from it. [ ]: non-standard residue; d: D form. X1 = O=C(Cc1cccc(N=Nc2cccc(CN[*:1])c2)c1)[*:2]

Tests used:
[1] = tested on: OX1; settings: in words; cited from earlier work
Source text: (§1) Among these, a family of neuroexcitatory peptides known as orexins (or hypocretins) is critically involved in regulating sleep and wakefulness, energy homeostasis, and reward. Orexin signaling is mediated by two closely related G protein-coupled receptors (GPCRs) – OX1 and OX2 (orexin) receptors – which are strongly conserved among mammals. While orexin cell bodies are concentrated in the hypothalamic area, orexin receptors are widely expressed in the central nervous system (CNS). Their endogenous ligands are two peptides, named ...

[2] = tested on: OX2; settings: in words; cited from earlier work
Source text: as §1

[3] = tested on: OX1 receptor; settings: membrane-based binding assay; ref Langmead et al., 5 (SI); cited from earlier work
Source text: Although the lack of binding with all three forms of OX-B - including the native ligand control - came unexpected, similar findings had already been observed for the OX1 receptor.

[4] = parameters: method as in 2 sources, one per row (each row's own in cited_ref): ref 75–77 = [75]; PMID 10087007; 75. Kastin AJ Akerstrom V Orexin A but not orexin B rapidly enters brain from blood by simple diffusion J Pharmacol Exp Ther 1999 289 219 223 10087007 || [76]; PMID 12626669; doi:10.1113/jphysiol.2002.038729; 76. John J Wu M-F Kodama T Siegel JM Intravenously administered hypocretin-1 alters brain amino acid release: an in vivo microdialysis study in rats J Physiol 2003 548 557 562 10.1113/jphysiol.2002.03 || [77]; PMID 14746374; doi:10.1093/sleep/26.8.953; 77. Fujiki N Yoshida Y Ripley B Mignot E Nishino S Effects of IV and ICV hypocretin-1 (orexin A) in hypocretin receptor-2 gene mutated narcoleptic dogs and IV hypocretin-1 replacement therapy in a hyp ||| ref 75 = [75]; PMID 10087007; 75. Kastin AJ Akerstrom V Orexin A but not orexin B rapidly enters brain from blood by simple diffusion J Pharmacol Exp Ther 1999 289 219 223 10087007; settings: intravenous administration or blood-free perfusion in mammals; cited from earlier work
[5] = Resistance to photofatigue; format: physicochemical; settings: several UV (365 nm)/blue (455 nm) cycles of 3 min; 25 µM in PBS pH 7.4, 25 °C; UPLC
Procedure: Stability to photodegradation was evaluated by exposing a phOX sample (25 µM in PBS at pH 7.4 and 25 °C) to alternating intervals (3 min each) of UV and visible light illumination (365 and 455 nm, respectively). The trans-cis isomeric distributions under different illumination conditions were measured by integrating the area of the corresponding peaks after UPLC analysis. These values were then converted to isomer percentages and plotted. After several cycles, no reduction could be observed in the isomers’ peak area, thus confirming photorexin stability to photodegradation.

[6] = target: T1, human OX1 (Homo sapiens, UniProt O43613); assay: FLIPR Tetra calcium mobilization assay, CHO-K1 cells; format: cell-based; settings: CHO-K1-hOX1; FLIPR; in words
T1 construct: expressed in transfected cells
T1 sequence (O43613 1-425): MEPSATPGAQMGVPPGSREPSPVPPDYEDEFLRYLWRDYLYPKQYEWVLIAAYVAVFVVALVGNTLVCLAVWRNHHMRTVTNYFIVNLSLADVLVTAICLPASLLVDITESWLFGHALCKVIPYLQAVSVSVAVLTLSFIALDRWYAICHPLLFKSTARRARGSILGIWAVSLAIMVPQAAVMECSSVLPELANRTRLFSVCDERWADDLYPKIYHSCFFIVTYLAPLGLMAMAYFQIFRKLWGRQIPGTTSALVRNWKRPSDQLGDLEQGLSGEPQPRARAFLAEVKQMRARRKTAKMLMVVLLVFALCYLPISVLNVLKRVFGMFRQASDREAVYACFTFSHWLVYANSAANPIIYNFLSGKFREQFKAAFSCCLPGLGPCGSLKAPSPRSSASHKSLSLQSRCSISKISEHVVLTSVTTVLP
Procedure: (§2) Samples of trans phOX were kept in the dark both prior to and during the whole duration of the experiment to avoid undesired photoconversion caused by environmental light. Unless differently stated, data for cis phOX were obtained by pre-illuminating the samples for 10 min with 365 nm UV light.
(§3) PFSK-1 cells were cultured in RPMI 1640 supplemented with 10% fetal bovine serum (FBS), 100 units/ml penicillin, and 100 µg/ml streptomycin. Chinese hamster ovary-K1 (CHO-K1) cells stably transfected to express human OX1 were cultured in Dulbecco’s Modified Eagle’s Medium/Nutrient Mixture F-12 Ham (DMEM/F12 1:1) medium supplemented with 10% FBS and 600 µg/ml G418. All cell lines were grown at 37 °C in 5% CO2.
(§4) Cells were plated at 50,000 cells/well in 96-well black-wall plates with poly-D-lysine-coated clear bottoms and grown overnight at 37 °C in 5% CO2. […] Calcium-mediated changes in fluorescence were monitored in a Fluorometric Imaging Plate Reader (FLIPR) Tetra instrument (Molecular Devices, USA). Fluorescence intensity was measured for 12 s to establish baseline fluorescence before addition of the test compound (20 µL/well) and further readings for a total of 155 s (excitation at 470–495 nm, detection at 515–575 nm). […]
(§5) Raw data from the FLIPR Tetra was exported as the difference between maximum and minimum fluorescence observed for each well. […] Agonist potencies (EC50) are expressed as means + SD.

[7] = target: T2, hOX2 (Homo sapiens, UniProt O43614); assay: FLIPR Tetra calcium mobilization assay, PFSK-1 cells; format: cell-based; settings: PFSK-1, hOX2; FLIPR; in words
T2 sequence (O43614 1-444): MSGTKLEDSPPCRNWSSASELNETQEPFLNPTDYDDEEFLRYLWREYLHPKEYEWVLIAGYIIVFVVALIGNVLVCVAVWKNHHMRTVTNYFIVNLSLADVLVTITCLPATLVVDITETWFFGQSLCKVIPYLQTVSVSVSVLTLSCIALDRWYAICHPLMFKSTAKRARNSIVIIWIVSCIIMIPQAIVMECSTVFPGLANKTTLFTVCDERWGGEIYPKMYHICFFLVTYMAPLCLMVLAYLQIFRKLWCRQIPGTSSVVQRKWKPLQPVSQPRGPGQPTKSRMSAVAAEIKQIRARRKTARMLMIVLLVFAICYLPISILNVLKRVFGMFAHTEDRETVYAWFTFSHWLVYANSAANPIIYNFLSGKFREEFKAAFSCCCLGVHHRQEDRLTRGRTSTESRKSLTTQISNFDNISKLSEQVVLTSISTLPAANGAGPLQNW
Procedure: as §2, §3, §4, §5

[8] = target: T2, hOX2; assay: In vitro single-cell calcium imaging, tsA201-hOX2; format: cell-based; parameters: expressed in transfected cells; host or cells: tsA201 (transformed human kidney cells), transient, co-transfected with R-GECO1; settings: 100 nM, AUC normalized to dark-adapted phOX, mean, n = 20 cells
Procedure: Transformed human kidney tsA201 cells were purchased from the European Collection of Authenticated Cell Culture. Cells were maintained at 37 °C in a humidified atmosphere with 5% CO2 and grown in Dulbecco’s Modified Eagle’s Medium/Nutrient Mixture F-12 Ham (DMEM/F12 1:1) medium (Life Technologies), supplemented with 10% FBS (Life Technologies) and 1% penicillin/streptomycin (Sigma-Aldrich).
Clones of GFP-labelled orexin receptors were kindly provided by Prof. Jyrki Kukkonen and the exact protein sequences have been reported by Putula et al.. The plasmid for the genetically encoded calcium indicator R-GECO1 was acquired from Addgene. Cells were transiently transfected with hOX1 or hOX2 receptors and R-GECO1 with X-tremeGENE 9 DNA Transfection Reagent (Roche Applied Science) following the manufacturer’s instructions. After 24 h, cells were harvested with accutase (Sigma-Aldrich) and plated onto 16-mm glass coverslips (Fisher Scientific) pre-treated with poly-L-Lysine (Sigma-Aldrich) to allow cell adhesion. Experiments were performed using pre-confluent cultures between 48 and 72 h after transfection. […]
Images were analyzed using FIJI (ImageJ). Data were analyzed and processed using GraphPad Prism v8.3.1. Statistical differences were determined by one-way ANOVA followed by Tukey’s multiple comparison post-hoc test. […]

[9] = target: T2, hOX2; assay: Radioligand competitive binding assay ([3H]EMPA); parameters: expressed in transfected cells; membranes
Source text: The affinity towards OX2 was studied in a competitive radioligand binding assay on membranes derived from HEK-293 cells stably transfected with the human receptor. [^3H]EMPA, an OX2-selective orthosteric antagonist, was used as radioactive tracer to quantify residual binding after competitive displacement in the presence of the unlabeled ligands.^3 Wild-type OX-B and almorexant, a non-selective OX1 and OX2 antagonist, served as controls.^4
[^3H]EMPA (specific activity 27 Ci/mmol) and almorexant were synthesized at Janssen Research & Development LLC (San Diego, CA), while orexin-B was obtained from Bachem (Torrance, CA).
Cell membranes were prepared from a stable pool of HEK-293 cells transfected with the human OX2. Test compounds were dissolved in DMSO (10 mM stock solutions) and diluted in Dulbecco’s phosphate-buffered saline supplemented with 0.1% bovine serum albumin (BSA). Competition studies were performed by incubating the membranes with the OX2-selective antagonist [^3H]EMPA (2 nM) and different concentrations of the test compounds (7 concentrations ranging from 10^−9 to 10^−6 M). After a 60-minute incubation at rt, binding reactions were filtered to separate the excess of free ligand from the membranes. Filters were then counted for radioactivity in a scintillation counter. Nonspecific binding was determined in the presence of 10 µM almorexant.
Specific binding was determined and plotted as a function of the concentration of the compound using GraphPad Prism v8.3.1 (GraphPad Software, San Diego, USA). Data were analyzed by nonlinear regression using a one-site competition model.

Compound: OX-A: endogenous orexin peptide with two disulfide bridges (QPLPDCCRQKTCSCRLYELLHGAGNHAAGILTL; not fully specified; Orexin-A; UniProt O43612 34-66, looked up)
- affinity at OX1 [1]: high affinity
- affinity at OX2 [2]: high affinity
- occupation of OX1 orthosteric site versus [3H]SB-674042 [3]: failed to occupy the receptor orthosteric site
- blood-brain barrier penetration [4]: penetrate the blood-brain barrier by simple diffusion

- potency [6]: high nanomolar potency
- potency [7]: high nanomolar potency
- retained activity under UV, relative to dark-adapted peptide ([8]; 365 nm (cis-enriched)): 6%
- recovery of calcium response under blue light, relative to initial response ([8]; 455 nm after UV): 52%
Compound: CC[C@H](C)[C@H](NC(=O)CNC(=O)[C@H](C)NC(=O)[C@H](C)NC(=O)Cc1cccc(N=Nc2cccc(CNC(=O)CNC(=O)[C@H](CO)NC(=O)[C@H](C)NC(=O)[C@H](CCC(N)=O)NC(=O)[C@H](CC(C)C)NC(=O)[C@H](CC(C)C)NC(=O)[C@H](CCCNC(=N)N)NC(=O)[C@H](CCC(N)=O)NC(=O)[C@H](CC(C)C)NC(=O)[C@H](CCCNC(=N)N)NC(=O)CNC(=O)[C@H](CCC(N)=O)NC(=O)[C@H](CC(C)C)NC(=O)CN)c2)c1)C(=O)N[C@@H](CC(C)C)C(=O)N[C@H](C(=O)N[C@@H](CCSC)C(N)=O)[C@@H](C)O [photorexin] (H-GLQGRLQRLLQASG[X1]AAGILTM-NH2)
- degradation or bleaching over light cycles [5]: without significant degradation or bleaching

Compound: CNC(=O)[C@@H](c1ccccc1)N1CCc2cc(OC)c(OC)cc2[C@@H]1CCc1ccc(C(F)(F)F)cc1 [almorexant]
- Ki [9]: 3 nM
- inhibition of [3H]EMPA binding ([9]; control ligands, HEK-293-hOX2 membranes, [3H]EMPA 2 nM, 60 min rt, 10^-9 to 10^-6 M, two independent experiments in triplicates): fully displaced the radioligand
